The results in this text go back to patent US20030109705A1, “Novel cyanoenamines useful as ligands for modulating gene expression in plants or animals” (priority 2001, published 2003).

Converted amounts (≈) assume the structure as drawn. Bounds are passed on as bounds.

One may read the EC80 as the point of the concentration-response curve where the effect stands at 80%.

Data set [1] has as its target T1, truncated Manduca EcR-VP16 (Manduca sexta, UniProt P49883).
T1 construct: A truncated Manduca EcR containing domains C, D and E of the receptor was constructed as follows; engineered start Met (in-frame ATG) (N); expressed in transfected cells; host or cells: S2 Drosophila cells (ATCC CRL-1963), transiently transfected with plasmid MMV (pPacU backbone)
The data set is described as follows: Cell-based luciferase reporter assay of transcriptional activation by EcR receptor plasmid (MMV) in S2 Drosophila cells. The settings on record: ligand 2 μM, harvested 24 hours after addition, ratio relative to reporter construct without ligand. The source says: A minimal promoter vector was made by ligating a synthetic TATA box sequence oligonucleotide pair, 5′-agcttgagggtataatg-3′ (SEQ ID NO: 1) and 3′-actcccatattactcga-5′ (SEQ ID NO:2), into the HindIII site of vector pGL3-basic (Promega) so that the HindIII site was recreated 5′ to the inserted oligonucleotide and destroyed between the oligonucleotide and the downstream luciferase gene. This vector was designated TATA5.
The binding site from the hsp27 gene (Koelle et al., Cell 67(1): 59-77 (1991)) was made with the oligonucleotide pair, 5′-[…]-3′ (SEQ ID NO:3) and 3′-[…]-5′ (SEQ ID NO:4). This site was multimerized and ligated into the BglII site of vector TATA-5. One isolate, pCGS154, contained the sequence below in the inserted region, having 2 pairs of sites in inverted orientations. […] The sequence of the inserted region in pCGS154 is shown below:
PCR primers were designed based on the published sequence for Manduca Sexta ecdysone receptor (EcR) (genbank accession number U19812 (SEQ ID Nos:6 and 7) to clone the gene in two halves. RNA was prepared from prepupae larva of Manduca sexta using the LiCl/phenol method (Current Protocols in Molecular Biology, Vol. 1, Unit 4.3, 1987, John Wiley and Sons, publishers) and 1 μg of total RNA was used to prepare cDNA using MMLV reverse transcriptase (Promega). The cDNA was used in a PCR reaction with the primers described above to generate two PCR products for the 5′ and 3′ halves of the gene. These were subcloned into the pGEM-TA vector (Promega) and sequenced. The two fragments were joined at a unique Ndel site within each fragment and ligated into pBS-KS (Stratagene) to create a full length Manduca sexta EcR clone named pBSFLMa. A HindIII site followed by an inframe stop codon and BamHI site was placed at the 3′ end of the E domain (ligand binding domain) of the Manduca EcR receptor using the oligonucleotide: 5′-[…]-3′ (SEQ ID NO:8).
A truncated Manduca EcR containing domains C, D and E of the receptor was constructed as follows. A BamHI site and in-frame ATG was engineered just 5′ to the C domain using the degenerate primers 5′-ggatccatgggycgagaagaattrtcaccr-3′ (SEQ ID NO:9) and 5′-ccacrtcccagatctcctcga-3′ (SEQ ID NO:10). This fragment was then joined using the Nde site to the 3′ end of Manduca EcR, which has an engineered HindIII site at the 3′ end as described above.
A fragment containing the herpes simplex VP16 transactivation domain was cloned from plasmid 35S/USP-VP16 (U.S. Pat. No. 5,880,333) using the PCR primers 5′-aagcttgcccccccgaccg-3′ (SEQ ID NO:11) (placing a HindIII site at the 5′ end of the domain) and 5′-[…]-3′ (SEQ ID NO:12) (placing an inframe stop codon followed by BamHI and Xbal sites at the 3′ end of the domain). The VP16 domain was fused in frame to the 3′ end of the E domain of the ecdysone receptor using the HindIII site 3′ to EcR clone and the HindIII site engineered at the 5′ end of VP16.
The plasmid pPacU (Courey A J and Tjian R (1988) Cell 55, 887-898) was used as the starting vector for expression constructs. The truncated Manduca EcR-VP16 was ligated into pPacU using the BamHI sites flanking the coding region to create the construct referred to as MMV.
An in vivo cell based assay was used to measure transcriptional activation by the EcR receptor plasmid in the presence of the chemical ligands as described above. S2 Drosophila cells (ATCC CRL-1963) (commonly known as cells from the fruit fly) were transiently transfected with luciferase reporter (pCGS154) and receptor expression plasmid (MMV) using the calcium phosphate precipitation procedure (Di Nocera and David (1983) PNAS 80, 7095-7098). S2 cells were plated in 96 well format at a density of 2×10^5 in 166.6 μl of Schneider's Drosophila media supplemented with antibiotics and 10% heat inactivated fetal bovine serum (GIBO-BRL). […]

The test system of the next data set is Spodoptera littoralis. The data set is described as follows: Spodoptera littoralis larvicide, feeding/contact activity on sprayed cotton leaf discs. In kind it is in vivo. The note with it: foliar, L1 larvae on sprayed cotton leaf discs, checked 2 and 6 days after treatment, read-out: Insecticidal activity (EC80 ppm) SPODLI. From the text: Spodoptera littoralis (abbreviated as SPODLI) (commonly known as Egyptian cotton leafworm): larvicide, feeding/contact activity. Cotton leaf discs were placed on agar in petri dishes and individually sprayed with test solution of cyanoenamine in an application chamber. After drying, the leaf discs were infested with 20 to 25 L1 larvae. The samples were checked for mortality, repellent effect, feeding behavior, and growth regulation 2 and 6 days after treatment. Each of Spodopertera littoralis and Heliothis virescens is a larval form of an insect in the order Lepidoptera.

For a further data set, the system named is Heliothis virescens. The data set is described as follows: Heliothis virescens ovo-larvicide, feeding/contact activity on eggs on artificial diet. The settings on record: 144 h, fresh eggs (0 to 24 hours old) on artificial diet, 6 days incubation, read-out: Insecticidal activity (EC80 ppm) Hv. In kind it is in vivo. Here is the method: Heliothis virescens (abbreviated as Hv) (commonly known as tobacco budworm): ovo-larvicide, feeding/contact activity. 30 to 35 fresh eggs (0 to 24 hours old), deposited on filter paper, were placed in petri dishes on a layer of artificial diet and 0.8 mL of each test solution of cyanoenamine was individually pipetted onto them. After an incubation period of 6 days, samples were checked for egg mortality, larval mortality, and growth regulation.
Each of Spodopertera littoralis and Heliothis virescens is a larval form of an insect in the order Lepidoptera.

T1 sequence (P49883 112-535, added parts left off): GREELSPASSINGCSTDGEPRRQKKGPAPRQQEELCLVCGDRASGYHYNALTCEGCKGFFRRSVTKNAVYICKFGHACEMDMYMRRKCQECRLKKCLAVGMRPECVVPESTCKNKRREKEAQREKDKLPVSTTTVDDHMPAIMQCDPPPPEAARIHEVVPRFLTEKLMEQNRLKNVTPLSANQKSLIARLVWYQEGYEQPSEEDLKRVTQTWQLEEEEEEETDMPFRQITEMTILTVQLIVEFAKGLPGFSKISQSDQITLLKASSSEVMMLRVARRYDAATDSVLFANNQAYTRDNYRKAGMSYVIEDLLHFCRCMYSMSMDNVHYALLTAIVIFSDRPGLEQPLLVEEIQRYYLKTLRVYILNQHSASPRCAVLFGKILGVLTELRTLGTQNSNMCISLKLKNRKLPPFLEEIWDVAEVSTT
T1 sequence (P20153 whole entry partner, the tested form may be a part): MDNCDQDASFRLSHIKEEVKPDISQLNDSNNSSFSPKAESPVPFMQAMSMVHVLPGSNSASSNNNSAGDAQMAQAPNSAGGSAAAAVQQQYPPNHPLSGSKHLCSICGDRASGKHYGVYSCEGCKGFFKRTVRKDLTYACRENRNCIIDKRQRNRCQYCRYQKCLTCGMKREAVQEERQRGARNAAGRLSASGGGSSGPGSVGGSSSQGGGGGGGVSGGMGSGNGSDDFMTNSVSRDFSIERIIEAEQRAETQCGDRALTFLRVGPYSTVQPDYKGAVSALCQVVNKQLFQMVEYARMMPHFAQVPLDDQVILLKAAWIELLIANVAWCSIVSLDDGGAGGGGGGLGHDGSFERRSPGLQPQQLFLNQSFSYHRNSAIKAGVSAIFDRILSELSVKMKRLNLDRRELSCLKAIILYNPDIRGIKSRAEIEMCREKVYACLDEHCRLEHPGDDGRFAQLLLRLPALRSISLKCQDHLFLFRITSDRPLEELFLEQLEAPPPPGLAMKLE

On to `Cc1cccc(/C(C#N)=C(\NC(=O)c2cccc(C)c2C)C(C)(C)C)c1`, for which the “Gene switch activity fold induction” value in data set [1] is 66 fold induction.

On to `Cc1c(Cl)cccc1C(=O)N/C(=C(/C#N)c1ccccc1)C(C)(C)C`, for which the “Gene switch activity fold induction” value in data set [1] turned out to be 191 fold induction.

Take `Cc1cccc(C(=O)N/C(=C(/C#N)c2ccccc2)C(C)(C)C)c1C`: the “Gene switch activity fold induction” value in data set [1] was determined as 636 fold induction.

On to `Cc1c(Br)cccc1C(=O)N/C(=C(/C#N)c1ccccc1)C(C)(C)C`, for which, in data set [1], the “Gene switch activity fold induction” value is recorded as 1112 fold induction.

As for `Cc1cc(C)cc(/C(C#N)=C(\NC(=O)c2cccc(Cl)c2Cl)C(C)(C)C)c1`, in data set [1], the “Gene switch activity fold induction” value is listed as 1145 fold induction.

On to `CCc1c(OC)cccc1C(=O)N/C(=C(/C#N)c1ccccc1)C(C)(C)C`, for which the “Gene switch activity fold induction” value in data set [1] is listed as 239 fold induction.

Turning to `COc1cccc(C(=O)N/C(=C(/C#N)c2ccccc2)C(C)(C)C)c1C`, in data set [1], the “Gene switch activity fold induction” value was 913 fold induction.

Take `Cc1cc(C)cc(/C(C#N)=C(\NC(=O)c2cccc(Cl)c2C)C(C)(C)C)c1` [drawing 443]: the results for the EC80 with Spodoptera littoralis and in the data set on Heliothis virescens were 50 µg/mL (≈ 131 µM) and 5 µg/mL (≈ 13.1 µM), respectively.

`Cc1cccc(/C(C#N)=C(\NC(=O)c2cccc(Br)c2C)C(C)(C)C)c1` [drawing 444]: the EC80 with Spodoptera littoralis and in the data set on Heliothis virescens was 200 µg/mL (≈ 486 µM) each time.

On to `Cc1cc(C)cc(/C(C#N)=C(\NC(=O)c2cccc(Br)c2C)C(C)(C)C)c1` [drawing 445], for which the 80% effect concentration (EC80) in the data set on Spodoptera littoralis and with Heliothis virescens was > 50 µg/mL each time.

For `CC(C)(C)/C(NC(=O)c1c(F)cccc1F)=C(\C#N)c1ccccc1` [drawing 446], the 80% effect concentration (EC80) with Spodoptera littoralis and in the data set on Heliothis virescens was > 100 µg/mL each time.

In the case of `Cc1cc(C)cc(/C(C#N)=C(\NC(=O)c2cccc(C)c2C)C(C)(C)C)c1` [drawing 447], the 80% effect concentration (EC80) with Spodoptera littoralis and in the data set with Heliothis virescens was 50 µg/mL (≈ 139 µM) throughout.

As for `COc1cccc(C(=O)N/C(=C(/C#N)c2cc(C)cc(C)c2)C(C)(C)C)c1C` [drawing 448], the 80% effect concentration (EC80) with Spodoptera littoralis and with Heliothis virescens was 100 µg/mL (≈ 266 µM) each time.

Take `COc1cccc(C(=O)N/C(=C(/C#N)c2cccc(C)c2)C(C)(C)C)c1C` [drawing 449]: the EC80 with Spodoptera littoralis and with Heliothis virescens was 200 µg/mL (≈ 552 µM) throughout.

Take `CCc1ccc(C(=O)N/C(=C(/C#N)c2ccccc2)C(C)(C)C)cc1` [drawing 450]: the EC80 with Spodoptera littoralis and in the data set with Heliothis virescens was > 100 µg/mL throughout.

For the compound `Cc1cc(C)cc(/C(C#N)=C(\NC(=O)c2cccc(Cl)c2C)C(C)(C)C)c1` [drawing 453], the “Gene switch activity fold induction” value in data set [1] worked out at 225 fold induction.

On to `Cc1cccc(/C(C#N)=C(\NC(=O)c2cccc(Br)c2C)C(C)(C)C)c1` [drawing 457], for which the “Gene switch activity fold induction” value in data set [1] is given as 1012 fold induction.

For the compound `Cc1cc(C)cc(/C(C#N)=C(\NC(=O)c2cccc(Br)c2C)C(C)(C)C)c1` [drawing 458], the “Gene switch activity fold induction” value in data set [1] is 1121 fold induction.

Take `CC(C)(C)/C(NC(=O)c1c(F)cccc1F)=C(\C#N)c1ccccc1` [drawing 459]: the “Gene switch activity fold induction” value in data set [1] was found to be 29 fold induction.

For `Cc1cc(C)cc(/C(C#N)=C(\NC(=O)c2cccc(C)c2C)C(C)(C)C)c1` [drawing 460], the “Gene switch activity fold induction” value in data set [1] was found to be 893 fold induction.

As to `COc1cccc(C(=O)N/C(=C(/C#N)c2cc(C)cc(C)c2)C(C)(C)C)c1C` [drawing 462], in data set [1], the “Gene switch activity fold induction” value was determined as 314 fold induction.

With `COc1cccc(C(=O)N/C(=C(/C#N)c2cccc(C)c2)C(C)(C)C)c1C` [drawing 463], the “Gene switch activity fold induction” value in data set [1] was 364 fold induction.

For `CCc1ccc(C(=O)N/C(=C(/C#N)c2ccccc2)C(C)(C)C)cc1` [drawing 464], the “Gene switch activity fold induction” value in data set [1] was 394 fold induction.
